Measured values as given in patent publication US8986994B2, “Substituted pyridines and pyrimidines” (Technische Universitaet Wien, priority 2009, dated 2015).
Like-named read-outs stand apart in the source and are kept apart here.

Key:
Nkx2.5 (P19 cells) = assay: Nkx2.5 luciferase reporter assay in P19 cells; type: cell-based; details: Mus musculus, read-out: Nkx2.5 activity
ANF (P19 cells) = assay: ANF promoter luciferase reporter assay in P19 cells; type: cell-based, mouse; details: for fold induction at 1 µM: Mus musculus, read-out: ANF activity
Nkx2.5 (C2C12 cells) = assay: Nkx2.5 luciferase reporter assay in C2C12 cells; type: cell-based; details: Mus musculus, read-out: Nkx2.5 activity
TOPflash (P19 cells) = assay: TOPflash luciferase reporter assay in P19 cells; type: cell-based; details: Mus musculus, read-out: TOPflash activity
TOPflash (C2C12 cells) = assay: TOPflash luciferase reporter assay in C2C12 cells; type: cell-based; details: Mus musculus, read-out: TOPflash activity
ANF (C2C12 cells) = assay: ANF promoter luciferase reporter assay in C2C12 cells; type: cell-based, mouse; details: for luciferase signal in all three reporter assays: ANF, TOPflash and Nkx2.5 reporter assays together; for fold induction at 1 µM: Mus musculus, read-out: ANF activity
[1] = 192 h, P19 cells, 1 μM for 8 days, luciferase signal vs control (untreated cells)
[2] = 192 h, C2C12 cells, 1 μM for 8 days, luciferase signal vs control (untreated cells)

COc1ccc(Nc2cc(NC3CCCCC3)ncn2)cc1 [example 3, N^4-Cyclohexyl-N^6-(4-methoxyphenyl)pyrimidine-4,6-diamine]
fold induction at 1 µM (Nkx2.5 (P19 cells); P19, 192 h): > 2 | fold induction at 1 µM (ANF (P19 cells); P19, 192 h): > 2 | luciferase signal in all three reporter assays (ANF (P19 cells); P19 cells, 1 μM for 8 days, ANF, TOPflash and Nkx2.5 reporter assays together): increase in the luciferase signal in all three reporter assays | fold induction at 1 µM (Nkx2.5 (C2C12 cells); C2C12, 192 h): > 2 | melting point: 218 to 219 °C | fold induction at 1 µM (TOPflash (P19 cells); P19, 192 h): > 2 | fold induction at 1 µM (TOPflash (C2C12 cells); C2C12, 192 h): 1.3 to 2 | luciferase signal in all three reporter assays (ANF (C2C12 cells); C2C12 cells, 1 μM for 8 days): increase in the luciferase signal in all three reporter assays | fold induction at 1 µM (ANF (C2C12 cells); C2C12, 192 h): > 2

OCCNc1cc(Nc2ccc(N3CCOCC3)cc2)ncn1 [example 4, 2-(6-(4-Morpholinophenylamino)pyrimidin-4-ylamino)ethan-1-ol]
fold induction at 1 µM (Nkx2.5 (P19 cells); [1]): < 1.3 | fold induction at 1 µM (ANF (P19 cells); [1]): < 1.3 | fold induction at 1 µM (Nkx2.5 (C2C12 cells); [2]): < 1.3 | melting point: 204 to 207 °C | fold induction at 1 µM (TOPflash (P19 cells); [1]): 1.3 to 2 | fold induction at 1 µM (TOPflash (C2C12 cells); [2]): < 1.3 | fold induction at 1 µM (ANF (C2C12 cells); [2]): < 1.3

c1nc(Nc2ccc(N3CCOCC3)cc2)cc(NC2CCCCC2)n1 [example 5, N^4-Cyclohexyl-N^6-(4-morpholinophenyl)pyrimidine-4,6-diamine]
fold induction at 1 µM (Nkx2.5 (P19 cells); P19, 192 h): < 1.3 | fold induction at 1 µM (ANF (P19 cells); P19, 192 h): 1.3 to 2 | fold induction at 1 µM (Nkx2.5 (C2C12 cells); C2C12, 192 h): < 1.3 | melting point: 239 to 240 °C | fold induction at 1 µM (TOPflash (P19 cells); P19, 192 h): < 1.3 | fold induction at 1 µM (TOPflash (C2C12 cells); C2C12, 192 h): < 1.3 | fold induction at 1 µM (ANF (C2C12 cells); C2C12, 192 h): < 1.3

OCCCNc1cc(Nc2ccc(N3CCOCC3)cc2)ncn1 [example 6, 3-(6-(4-Morpholinophenylamino)pyrimidin-4-ylamino)propan-1-ol]
fold induction at 1 µM (Nkx2.5 (P19 cells); [1]): < 1.3 | fold induction at 1 µM (ANF (P19 cells); [1]): 1.3 to 2 | fold induction at 1 µM (Nkx2.5 (C2C12 cells); [2]): 1.3 to 2 | melting point: 198 to 199 °C | fold induction at 1 µM (TOPflash (P19 cells); [1]): < 1.3 | fold induction at 1 µM (TOPflash (C2C12 cells); [2]): < 1.3 | fold induction at 1 µM (ANF (C2C12 cells); [2]): 1.3 to 2

OCCNc1cc(Nc2ccc(Nc3ccccc3)cc2)ncn1 [example 7, 2-(6-(4-(Phenylamino)phenylamino)pyrimidin-4-ylamino)ethan-1-ol]
fold induction at 1 µM (Nkx2.5 (P19 cells); [1]): < 1.3 | fold induction at 1 µM (ANF (P19 cells); [1]): < 1.3 | fold induction at 1 µM (Nkx2.5 (C2C12 cells); [2]): < 1.3 | melting point: 154 to 155 °C | fold induction at 1 µM (TOPflash (P19 cells); [1]): < 1.3 | fold induction at 1 µM (TOPflash (C2C12 cells); [2]): < 1.3 | fold induction at 1 µM (ANF (C2C12 cells); [2]): < 1.3

COc1ccc(Nc2cc(NC(C)C)ncn2)cc1 [example 12, N^4-(2-Propyl)-N^6-(4-methoxyphenyl)pyrimidine-4,6-diamine]
fold induction at 1 µM (Nkx2.5 (P19 cells); P19, 192 h): 1.3 to 2 | fold induction at 1 µM (ANF (P19 cells); P19, 192 h): < 1.3 | fold induction at 1 µM (Nkx2.5 (C2C12 cells); C2C12, 192 h): 1.3 to 2 | fold induction at 1 µM (TOPflash (P19 cells); P19, 192 h): < 1.3 | fold induction at 1 µM (TOPflash (C2C12 cells); C2C12, 192 h): 1.3 to 2 | luciferase signal in all three reporter assays (ANF (C2C12 cells); C2C12 cells, 1 μM for 8 days): increase in the luciferase signal in all three reporter assays | fold induction at 1 µM (ANF (C2C12 cells); C2C12, 192 h): 1.3 to 2

COCCNc1cc(Nc2ccc(OC)cc2)ncn1 [example 13, N^4-(2-Methoxyethyl)-N^6-(4-methoxyphenyl)pyrimidine-4,6-diamine]
fold induction at 1 µM (ANF (P19 cells); P19, 192 h): 1.3 to 2

COc1ccc(Nc2cc(NCC(=O)O)ncn2)cc1 [example 14, 2-(6-(4-Methoxyphenylamino)pyrimidin-4-ylamino)acetic acid]
fold induction at 1 µM (ANF (P19 cells); P19, 192 h): > 2

COc1ccc(Nc2cc(N3CCOCC3)ncn2)cc1 [example 15, N-(4-Methoxyphenyl)-6-morpholinopyrimidin-4-amine]
fold induction at 1 µM (ANF (P19 cells); [1]): > 2

COc1ccc(Nc2cc(N(C)CCO)ncn2)cc1 [example 16, 2-((6-(4-Methoxyphenylamino)pyrimidin-4-yl)(methyl)amino)ethan-1-ol]
fold induction at 1 µM (ANF (P19 cells); P19, 192 h): > 2

CCCCNc1cc(Nc2ccc(OC)cc2)ncn1 [example 17, N^4-Butyl-N^6-(4-methoxyphenyl)pyrimidine-4,6-diamine]
fold induction at 1 µM (ANF (P19 cells); [1]): > 2

COc1ccc(Nc2cc(NC3CCCC3)ncn2)cc1 [example 18, N^4-Cyclopentyl-N^6-(4-methoxyphenyl)pyrimidine-4,6-diamine]
fold induction at 1 µM (ANF (P19 cells); P19, 192 h): > 2

CCC(C)Nc1cc(Nc2ccc(OC)cc2)ncn1 (centres unmarked) [example 19, N^4-sec-Butyl-N^6-(4-methoxyphenyl)pyrimidine-4,6-diamine]
fold induction at 1 µM (Nkx2.5 (P19 cells); [1]): < 1.3 | fold induction at 1 µM (ANF (P19 cells); [1]): < 1.3

COc1ccc(Nc2cc(NC(C)(C)C)ncn2)cc1 [example 20, N^4-tert-Butyl-N^6-(4-methoxyphenyl)pyrimidine-4,6-diamine]
fold induction at 1 µM (ANF (P19 cells); P19, 192 h): > 2

COc1ccc(Nc2cc(NC34CC5CC(CC(C5)C3)C4)ncn2)cc1 [example 21, N^4-Adamant-1-yl-N^6-(4-methoxyphenyl)pyrimidine-4,6-diamine]
fold induction at 1 µM (ANF (P19 cells); P19, 192 h): > 2

COc1cccc(Nc2cc(NCCO)ncn2)c1 [example 22, 2-(6-(3-Methoxyphenylamino)pyrimidin-4-ylamino)ethan-1-ol]
fold induction at 1 µM (Nkx2.5 (P19 cells); [1]): < 1.3 | fold induction at 1 µM (ANF (P19 cells); [1]): < 1.3 | fold induction at 1 µM (Nkx2.5 (C2C12 cells); [2]): < 1.3 | fold induction at 1 µM (TOPflash (P19 cells); [1]): < 1.3 | fold induction at 1 µM (TOPflash (C2C12 cells); [2]): 1.3 to 2 | fold induction at 1 µM (ANF (C2C12 cells); [2]): 1.3 to 2

OCCNc1cc(Nc2ccccc2)ncn1 [example 23, 2-(6-(Phenylamino)pyrimidin-4-ylamino)ethan-1-ol]
fold induction at 1 µM (Nkx2.5 (P19 cells); [1]): < 1.3 | fold induction at 1 µM (ANF (P19 cells); [1]): < 1.3

OCCNc1cc(Nc2ccc(Cl)cc2)ncn1 [example 24, 2-(6-(4-Chlorophenylamino)pyrimidin-4-ylamino)ethan-1-ol]
fold induction at 1 µM (Nkx2.5 (P19 cells); [1]): 1.3 to 2 | fold induction at 1 µM (ANF (P19 cells); [1]): 1.3 to 2 | melting point: 183 °C

OCCNc1cc(Nc2cccc(Cl)c2)ncn1 [example 25, 2-(6-(3-Chlorophenylamino)pyrimidin-4-ylamino)ethan-1-ol]
fold induction at 1 µM (Nkx2.5 (P19 cells); [1]): 1.3 to 2 | fold induction at 1 µM (ANF (P19 cells); [1]): > 2

Clc1cccc(Nc2cc(NC3CCCCC3)ncn2)c1 [example 26, N^4-(3-Chlorophenyl)-N^6-cyclohexylpyrimidine-4,6-diamine]
fold induction at 1 µM (Nkx2.5 (P19 cells); P19, 192 h): > 2 | fold induction at 1 µM (ANF (P19 cells); P19, 192 h): > 2

COCCNc1cc(Nc2cccc(Cl)c2)ncn1 [example 27, N^4-(3-Chlorophenyl)-N^6-(2-methoxyethyl)pyrimidine-4,6-diamine]
fold induction at 1 µM (Nkx2.5 (P19 cells); P19, 192 h): < 1.3 | fold induction at 1 µM (ANF (P19 cells); P19, 192 h): < 1.3

O=[N+]([O-])c1ccc(Nc2cc(NCCO)ncn2)cc1 [example 30, 2-(6-(4-Nitrophenylamino)pyrimidin-4-ylamino)ethan-1-ol]
fold induction at 1 µM (Nkx2.5 (P19 cells); [1]): < 1.3 | fold induction at 1 µM (ANF (P19 cells); [1]): < 1.3

OCCCNc1cc(Nc2cccc(Cl)c2)ncn1 [example 31, 3-(6-(3-Chlorophenylamino)pyrimidin-4-ylamino)propan-1-ol]
fold induction at 1 µM (Nkx2.5 (P19 cells); P19, 192 h): 1.3 to 2 | fold induction at 1 µM (ANF (P19 cells); P19, 192 h): 1.3 to 2

OCCNc1cc(Nc2cccc(F)c2)ncn1 [example 32, 2-(6-(3-Fluorophenylamino)pyrimidin-4-ylamino)ethan-1-ol]
fold induction at 1 µM (Nkx2.5 (P19 cells); [1]): < 1.3 | fold induction at 1 µM (ANF (P19 cells); [1]): < 1.3

OCCNc1cc(Nc2cccc(Br)c2)ncn1 [example 33, 2-(6-(3-Bromophenylamino)pyrimidin-4-ylamino)ethan-1-ol]
fold induction at 1 µM (Nkx2.5 (P19 cells); [1]): 1.3 to 2 | fold induction at 1 µM (ANF (P19 cells); [1]): < 1.3

CCOC(=O)c1ccc(Nc2cc(NCCO)ncn2)cc1 [example 34, Ethyl 4-(6-(2-hydroxyethylamino)pyrimidin-4-ylamino)benzoate]
fold induction at 1 µM (Nkx2.5 (P19 cells); [1]): < 1.3 | fold induction at 1 µM (ANF (P19 cells); [1]): < 1.3

COc1cccc(Nc2cc(NC3CCCCC3)ncn2)c1 [example 37, N^4-Cyclohexyl-N^6-(3-methoxyphenyl)pyrimidine-4,6-diamine]
fold induction at 1 µM (Nkx2.5 (P19 cells); P19, 192 h): > 2 | fold induction at 1 µM (ANF (P19 cells); P19, 192 h): 1.3 to 2

COc1ccc(N(C)c2cc(NCCO)ncn2)cc1 [example 38, 2-(6-((4-Methoxyphenyl)(methyl)amino)pyrimidin-4-ylamino)ethan-1-ol]
fold induction at 1 µM (ANF (P19 cells); [1]): > 2

OCCNc1cc(NC2CCCCC2)ncn1 [example 39, 2-(6-(Cyclohexylamino)pyrimidin-4-ylamino)ethan-1-ol]
fold induction at 1 µM (ANF (P19 cells); P19, 192 h): < 1.3

COc1ccc(Nc2cccc(NCCCO)n2)cc1 [example 43, 3-(6-(4-Methoxyphenylamino)pyridin-2-ylamino)propan-1-ol]
fold induction at 1 µM (Nkx2.5 (P19 cells); [1]): < 1.3 | fold induction at 1 µM (ANF (P19 cells); [1]): 1.3 to 2 | fold induction at 1 µM (Nkx2.5 (C2C12 cells); [2]): 1.3 to 2 | fold induction at 1 µM (TOPflash (P19 cells); [1]): 1.3 to 2 | fold induction at 1 µM (TOPflash (C2C12 cells); [2]): 1.3 to 2 | luciferase signal in all three reporter assays (ANF (C2C12 cells); C2C12 cells, 1 μM for 8 days): increase in the luciferase signal in all three reporter assays | fold induction at 1 µM (ANF (C2C12 cells); [2]): 1.3 to 2

OCCNc1cccc(Nc2ccc(Oc3ccccc3)cc2)n1 [example 44, 2-(6-(4-Phenoxyphenylamino)pyridin-2-ylamino)ethan-1-ol]
fold induction at 1 µM (Nkx2.5 (P19 cells); [1]): < 1.3 | fold induction at 1 µM (ANF (P19 cells); [1]): 1.3 to 2 | fold induction at 1 µM (Nkx2.5 (C2C12 cells); [2]): 1.3 to 2 | fold induction at 1 µM (TOPflash (P19 cells); [1]): < 1.3 | fold induction at 1 µM (TOPflash (C2C12 cells); [2]): < 1.3 | fold induction at 1 µM (ANF (C2C12 cells); [2]): < 1.3

OCCCNc1cccc(Nc2ccc(Oc3ccccc3)cc2)n1 [example 45, 3-(6-(4-Phenoxyphenylamino)pyridin-2-ylamino)propan-1-ol]
fold induction at 1 µM (Nkx2.5 (P19 cells); [1]): < 1.3 | fold induction at 1 µM (ANF (P19 cells); [1]): < 1.3 | fold induction at 1 µM (Nkx2.5 (C2C12 cells); [2]): < 1.3 | fold induction at 1 µM (TOPflash (P19 cells); [1]): < 1.3 | fold induction at 1 µM (TOPflash (C2C12 cells); [2]): 1.3 to 2 | fold induction at 1 µM (ANF (C2C12 cells); [2]): < 1.3
